Tested on: NOMO1
Test: cell viability relative to DMSO control; higher = less cytotoxic
Conditions: 48 h
Summary of the method: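 In 1536-well plates, 5 μl of leukemia cells were seeded per well: 500 cells/well for NOMO1 or SEM and 1000 cells/well for P12-Ichikawa. Each line had first been adapted for at least four passages in each medium. Library compounds in DMSO were pin-dosed at 11 threefold concentrations between 47 μM and 0.79 nM, and CellTiter-Glo One luminescence was read after 48 h at 37°C. Viability is a per-plate percentage relative to DMSO wells, with cell-free wells as background.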

[1] = HPLM + 10% dialyzed FBS, 0.000781 µM
[2] = HPLM + 10% dialyzed FBS, 0.00234 µM
[3] = HPLM + 10% dialyzed FBS, 0.00702 µM
[4] = HPLM + 10% dialyzed FBS, 0.0211 µM
[5] = HPLM + 10% dialyzed FBS, 0.0632 µM
[6] = HPLM + 10% dialyzed FBS, 0.19 µM
[7] = HPLM + 10% dialyzed FBS, 0.569 µM
[8] = HPLM + 10% dialyzed FBS, 1.71 µM
[9] = HPLM + 10% dialyzed FBS, 5.12 µM
[10] = HPLM + 10% dialyzed FBS, 15.4 µM
[11] = HPLM + 10% dialyzed FBS, 46.1 µM
[12] = RPMI 5 mM glucose + 10% FBS, 0.000781 µM
[13] = RPMI 5 mM glucose + 10% FBS, 0.00234 µM
[14] = RPMI 5 mM glucose + 10% FBS, 0.00702 µM
[15] = RPMI 5 mM glucose + 10% FBS, 0.0211 µM
[16] = RPMI 5 mM glucose + 10% FBS, 0.0632 µM
[17] = RPMI 5 mM glucose + 10% FBS, 0.19 µM
[18] = RPMI 5 mM glucose + 10% FBS, 0.569 µM
[19] = RPMI 5 mM glucose + 10% FBS, 1.71 µM
[20] = RPMI 5 mM glucose + 10% FBS, 5.12 µM
[21] = RPMI 5 mM glucose + 10% FBS, 15.4 µM
[22] = RPMI 5 mM glucose + 10% FBS, 46.1 µM
[23] = RPMI 5 mM glucose + 10% dialyzed FBS, 0.000781 µM
[24] = RPMI 5 mM glucose + 10% dialyzed FBS, 0.00234 µM
[25] = RPMI 5 mM glucose + 10% dialyzed FBS, 0.00702 µM
[26] = RPMI 5 mM glucose + 10% dialyzed FBS, 0.0211 µM
[27] = RPMI 5 mM glucose + 10% dialyzed FBS, 0.0632 µM
[28] = RPMI 5 mM glucose + 10% dialyzed FBS, 0.19 µM
[29] = RPMI 5 mM glucose + 10% dialyzed FBS, 0.569 µM
[30] = RPMI 5 mM glucose + 10% dialyzed FBS, 1.71 µM
[31] = RPMI 5 mM glucose + 10% dialyzed FBS, 5.12 µM
[32] = RPMI 5 mM glucose + 10% dialyzed FBS, 15.4 µM
[33] = RPMI 5 mM glucose + 10% dialyzed FBS, 46.1 µM

SMILES: O=C(Nc1cccnn1)N1CCC(=Cc2cccc(Oc3ccc(C(F)(F)F)cn3)c2)CC1
- cell viability [1]: 72.8%
- cell viability [2]: 98.3%
- cell viability [3]: 109%
- cell viability [4]: 47.4%
- cell viability [5]: 122%
- cell viability [6]: 117%
- cell viability [7]: 113%
- cell viability [8]: 124%
- cell viability [9]: 110%
- cell viability [10]: 102%
- cell viability [11]: 110%
- cell viability [12]: 83.4%
- cell viability [13]: 98.3%
- cell viability [14]: 96.3%
- cell viability [15]: 21.7%
- cell viability [16]: 90.8%
- cell viability [17]: 112%
- cell viability [18]: 91.6%
- cell viability [19]: 97.7%
- cell viability [20]: 98.1%
- cell viability [21]: 96.2%
- cell viability [22]: 94.2%
- cell viability [23]: 91%
- cell viability [24]: 85.3%
- cell viability [25]: 94.4%
- cell viability [26]: 75.4%
- cell viability [27]: 103%
- cell viability [28]: 97.4%
- cell viability [29]: 109%
- cell viability [30]: 106%
- cell viability [31]: 96.5%
- cell viability [32]: 103%
- cell viability [33]: 100%

SMILES: CCOC1=CC=CC=C1N\2C(=O)C3=C(C=CC=C3)\N=C2C(C)N4CCN(CC4)C(=O)COC5=CC=C(Cl)C=C5 (configuration not stated)
- cell viability [12]: 116%
- cell viability [13]: 115%
- cell viability [14]: 132%
- cell viability [15]: 112%
- cell viability [16]: 131%
- cell viability [17]: 127%
- cell viability [18]: 119%
- cell viability [19]: 37.8%
- cell viability [20]: 10.4%
- cell viability [21]: 5.57%
- cell viability [22]: 3.82%

SMILES: NC(=O)NO
- cell viability [1]: 88.2%
- cell viability [2]: 102%
- cell viability [3]: 110%
- cell viability [4]: 110%
- cell viability [5]: 116%
- cell viability [6]: 100%
- cell viability [7]: 88.9%
- cell viability [8]: 84.9%
- cell viability [9]: 16.6%
- cell viability [10]: 3.7%
- cell viability [11]: 2.4%
- cell viability [12]: 83.9%
- cell viability [13]: 90.8%
- cell viability [14]: 85.6%
- cell viability [15]: 88.7%
- cell viability [16]: 86.1%
- cell viability [17]: 90.2%
- cell viability [18]: 90.8%
- cell viability [19]: 94.6%
- cell viability [20]: 37.3%
- cell viability [21]: 10.4%
- cell viability [22]: 1.27%
- cell viability [23]: 81.9%
- cell viability [24]: 90.4%
- cell viability [25]: 92.6%
- cell viability [26]: 95.3%
- cell viability [27]: 98%
- cell viability [28]: 87.2%
- cell viability [29]: 91.1%
- cell viability [30]: 96%
- cell viability [31]: 33%
- cell viability [32]: 10%
- cell viability [33]: 1.29%

SMILES: Cc1noc(-c2ccc(CSCCC(=O)O)cc2)c1NC(=O)OC(C)c1ccccc1Cl (configuration not stated)
- cell viability [1]: 92.3%
- cell viability [2]: 89.9%
- cell viability [3]: 105%
- cell viability [4]: 104%
- cell viability [5]: 99.8%
- cell viability [6]: 97.1%
- cell viability [7]: 95.6%
- cell viability [8]: 97%
- cell viability [9]: 113%
- cell viability [10]: 111%
- cell viability [11]: 95.7%
- cell viability [12]: 85.7%
- cell viability [13]: 97.5%
- cell viability [14]: 99%
- cell viability [15]: 89.6%
- cell viability [16]: 109%
- cell viability [17]: 95.4%
- cell viability [18]: 102%
- cell viability [19]: 100%
- cell viability [20]: 95.5%
- cell viability [21]: 110%
- cell viability [22]: 105%
- cell viability [23]: 79%
- cell viability [24]: 99.1%
- cell viability [25]: 87.3%
- cell viability [26]: 86.3%
- cell viability [27]: 99.1%
- cell viability [28]: 92.2%
- cell viability [29]: 99.5%
- cell viability [30]: 95.8%
- cell viability [31]: 100%
- cell viability [32]: 104%
- cell viability [33]: 107%

SMILES: C[C@]12CCC\3=C\4CCC(=O)\C=C4CC[C@H]3[C@@H]1CC[C@@]2(O)CC#N
- cell viability [1]: 123%
- cell viability [2]: 123%
- cell viability [3]: 138%
- cell viability [4]: 144%
- cell viability [5]: 143%
- cell viability [6]: 139%
- cell viability [7]: 138%
- cell viability [8]: 125%
- cell viability [9]: 158%
- cell viability [10]: 137%
- cell viability [11]: 168%

SMILES: CC[C@]1(O)C[C@@H]2CN(CCc3c([nH]c4ccccc34)[C@@](C(=O)OC)(c3cc4c(cc3OC)N(C)[C@H]3[C@@](O)(C(N)=O)[C@H](O)[C@]5(CC)C=CCN6CC[C@]43[C@@H]65)C2)C1
- cell viability [12]: 110%
- cell viability [13]: 113%
- cell viability [14]: 132%
- cell viability [15]: 103%
- cell viability [16]: 96.4%
- cell viability [17]: 25.3%
- cell viability [18]: 21.1%
- cell viability [19]: 25.8%
- cell viability [20]: 21.4%
- cell viability [21]: 22.8%
- cell viability [22]: 21%
- cell viability [23]: 116%
- cell viability [24]: 114%
- cell viability [25]: 106%
- cell viability [26]: 122%
- cell viability [27]: 121%
- cell viability [28]: 44.6%
- cell viability [29]: 24.6%
- cell viability [30]: 28.2%
- cell viability [31]: 24.2%
- cell viability [32]: 23.6%
- cell viability [33]: 20.7%

SMILES: COc1cc(C(=O)NS(=O)(=O)c2ccccc2C)ccc1Cc1cn(C)c2ccc(NC(=O)OC3CCCC3)cc12
- cell viability [1]: 66.5%
- cell viability [2]: 66.3%
- cell viability [3]: 75.8%
- cell viability [4]: 91.5%
- cell viability [5]: 79.7%
- cell viability [6]: 77.8%
- cell viability [7]: 87.3%
- cell viability [8]: 87.3%
- cell viability [9]: 87.1%
- cell viability [10]: 83.8%
- cell viability [11]: 31.1%
- cell viability [12]: 77.7%
- cell viability [13]: 86.9%
- cell viability [14]: 79.6%
- cell viability [15]: 80.1%
- cell viability [16]: 77.6%
- cell viability [17]: 86.5%
- cell viability [18]: 82.4%
- cell viability [19]: 87.6%
- cell viability [20]: 85.2%
- cell viability [21]: 80.4%
- cell viability [22]: 18.9%
- cell viability [23]: 68%
- cell viability [24]: 84.5%
- cell viability [25]: 76.4%
- cell viability [26]: 92.9%
- cell viability [27]: 88.8%
- cell viability [28]: 99.7%
- cell viability [29]: 83.5%
- cell viability [30]: 81.6%
- cell viability [31]: 86.1%
- cell viability [32]: 81.2%
- cell viability [33]: 6.79%

SMILES: CC(C)[C@H](N)C(=O)OCCOC[N]1C=NC2=C1\N=C(N)/NC2=O
- cell viability [1]: 102%
- cell viability [2]: 119%
- cell viability [3]: 110%
- cell viability [4]: 122%
- cell viability [5]: 135%
- cell viability [6]: 135%
- cell viability [7]: 133%
- cell viability [8]: 123%
- cell viability [9]: 133%
- cell viability [10]: 113%
- cell viability [11]: 142%

SMILES: CN(C)C1=C(Br)C=C(C=C1)C\2NC3=C(\C4=C2C(=O)CC(C)(C)C4)C5=CC=CC=C5C=C3 (configuration not stated)
- cell viability [12]: 103%
- cell viability [13]: 124%
- cell viability [14]: 119%
- cell viability [15]: 113%
- cell viability [16]: 114%
- cell viability [17]: 103%
- cell viability [18]: 113%
- cell viability [19]: 98%
- cell viability [20]: 110%
- cell viability [21]: 103%
- cell viability [22]: 102%
- cell viability [23]: 75.9%
- cell viability [24]: 117%
- cell viability [25]: 158%
- cell viability [26]: 172%
- cell viability [27]: 182%
- cell viability [28]: 71.7%
- cell viability [29]: 52.3%
- cell viability [30]: 89.3%
- cell viability [31]: 143%
- cell viability [32]: 74.4%
- cell viability [33]: 94.8%

SMILES: CC(NCCc1ccc(O)cc1)C(O)c1ccc(O)cc1 (configuration not stated)
- cell viability [1]: 124%
- cell viability [2]: 123%
- cell viability [3]: 121%
- cell viability [4]: 111%
- cell viability [5]: 124%
- cell viability [6]: 120%
- cell viability [7]: 127%
- cell viability [8]: 110%
- cell viability [9]: 118%
- cell viability [10]: 97.5%
- cell viability [11]: 80%
- cell viability [12]: 113%
- cell viability [13]: 106%
- cell viability [14]: 107%
- cell viability [15]: 113%
- cell viability [16]: 102%
- cell viability [17]: 96.2%
- cell viability [18]: 101%
- cell viability [19]: 104%
- cell viability [20]: 105%
- cell viability [21]: 94.8%
- cell viability [22]: 95%
- cell viability [23]: 93.4%
- cell viability [24]: 114%
- cell viability [25]: 109%
- cell viability [26]: 99.7%
- cell viability [27]: 110%
- cell viability [28]: 114%
- cell viability [29]: 102%
- cell viability [30]: 93.8%
- cell viability [31]: 91.3%
- cell viability [32]: 93.5%
- cell viability [33]: 77.3%

From the supplement of paper PMC11451515
